# From patent US5567704A, “R-enatiomerically pure hydroxylated xanthine compounds to treat baldness” (priority 1995, dated 1996)
# Columns and labels:
# [1] = system: nu/nu mice; assay: nude mouse hair studies, topical application; type: in vivo; settings: second experiment; topical twice daily, 34 days
# Text: This example illustrates nude mouse hair studies involving topical application of CT1501R. Six to eight week old, female, nu/nu mice from Charles River Laboratories were housed at Biosupport Research Support Services (Seattle, Wash.) in autoclaved micro isolator units with hyperchlorinated autoclaved water, irradiated rodent chow and kept under a laminar flow hood. Caging was changed weekly, and water was changed twice weekly. The mice were acclimated for 5 days before beginning each study.
# The first topical formulation was prepared by adding CT1501R to a heated hydrophilic ointment (USP) at a 1% concentration, and allowed to solidify.
# Nude mice were painted twice daily for 16 days with the first topical formulation of CT1501R on the left flank and another compound in the same base on the right flank with sterile applicators. Mice were handled under the laminar flow hood with applicator wearing face mask and sterile gloves. After 16 days, one mouse was sacrificed by cervical dislocation and skin biopsies were taken of the treated areas of the shoulder/flank and from the non-treated area of the dorsal pelvis (rump). Specimens were placed in 10% buffered formalin solution. Biopsies were sent to a veterinary dermopathologist for histopathology. Six weeks following treatment, a second mouse was euthanatized and biopsied the same as the first. Samples were sent for histopathology.
# In a second experiment, topical application of CT1501R was performed along with a commercial topical minoxidil preparation (Rogaine®, Upjohn) that is approved for a hair growth indication. Five to six week old, female, nu/nu mice from Bantin and Kingman Universal were housed at Biosupport Research Support Services (Seattle, Wash.) in autoclaved micro isolator units with hyper chlorinated autoclaved water, irradiated rodent chow and kept under a laminar flow hood. Caging was changed weekly, and water was changed twice weekly. Mice were acclimated for 7 days before beginning study.
# CT1501R, and two other compounds were prepared in a topical formulation of 60% ETOH, 10% water and 30% PEG along with vehicle only. Minoxidil was purchased as the commercial preparation Rogaine® from a local pharmacy. Rogaine® is sold in the same formulation base. Mice were identified by unique tail markings specific for each test article. Two mice per group were treated with CT1501R and another compound. One mouse was treated with each of vehicle and minoxidil. The mice were handled under the laminar flow hood with the applicator wearing face mask and sterile gloves. Each mouse was treated twice daily with a separate sterile applicator to avoid contamination of the solutions or the mice. All mice were applied a strip of appropriate test article along the center line of the back from the base of the skull to the base of the tail, approximately 1.5 cm wide. After 34 days all mice were euthanatized by overdose of halothane anesthesia. Skin biopsies were taken from each of the 7 mice over the nape of the neck between the scapulas (approximate size was 1×1.5 cm). All specimens were blotted on gauze to remove blood and fluids, affixed to a cut piece of wooden tongue depressor, and placed specimen side down in separately marked containers with 10% buffered formalin. Specimens were shipped to a veterinary dermatopathologist for qualitative histopathological determinations.
# [2] = system: lysophosphatidic acid acyl transferase (LPAAT); assay: in vitro inhibition of LPAAT in 3T3 Ras-transformed fibroblasts stimulated with IL-1β; type: cell-based; settings: 3T3 Ras-transformed fibroblasts, IL-1β, FIG. 17
# Experimental: FIG. 17 illustrates a comparison of CT1501R, its S isomer CT1501S, and PTX on in vitro inhibition of lysophosphatidic acid acyl transferase (LPAAT), an enzyme involved in second messenger signaling. […] LPAAT activity was determined in 3T3 Ras-transformed fibroblasts stimulated with IL-1β.
# One in vitro assay measures inhibition of the relevant enzymes lysophosphatidic acid acyltransferase (LPAAT) and phosphatidic acid phosphoryl hydrolase (PAPH). The assay involves incubating of target cells with a primary stimulus (e.g., a variety of cytokines, growth factors, oncogene products, putative therapeutic agents, irradiation, viral infection, toxins, bacterial infection and the products thereof, and any stimulus which, if not counteracted, has a deleterious effect on the target cell) in the presence or absence of an inventive compound at varying dosage levels. Target cells include, for example, subcellular entities, such as, microsomes derived from mesenchymal and/or ectodermal cells, particularly microsomes from marrow stromal cells or human or rat mesangial cells; microsomes or synaptosomes derived from brain; plasma membrane-enriched microsomes, plasma membranes derived as described in Bursten et at. (J. Biol. Chem. 226:20732-20743, 1991 ), or detergent-solubilized microsomes; synaptosomes, and membranes or other cell preparations solubilized using, for example, NP-40, Miranal, SDS or other neutral detergents; and detergent-solubilized, recombinant, or further purified preparations of cell proteins, including the proteins LPAAT and/or PAPH. After incubation for short periods of time, cell lipids are extracted and assayed by […] according to standard procedures. Briefly, lipids are extracted using, for example, chloroform:methanol 2:1 (v/v), and the extracts are then subjected to HPLC as described in Bursten and Harris, Biochemistry 30:6195-6203, 1991. A Rainin® mu-Porasil column is used with a 3:4 hexane:propanol organic carrier and a 1-10% water gradient during the first 10 minutes of separation. Detection of the peaks in the elution pattern is by absorption in the range of ultraviolet which detects isolated double bonds. The relevant peaks of unsaturated PA and DAG are shown in the elution pattern. It is important to note that the assay method permits discrimination between various forms of PA and DAG so that those relevant to the pathway affected by the (R) or (S) compounds of the invention can be measured directly. Confirmation of the nature of the acyl substituents of these components is accomplished using fast-atom bombardment mass spectroscopy. Thus, the relevant unsaturated (non-arachidonic) PA and DAG subspecies may be detected. The time periods employed are 5-60 seconds after stimulation with the primary stimulus, such as a cytokine. This technique permits assessment of the levels of various lipid components as a function of time.
# [3] = system: smooth muscle cell; assay: smooth muscle proliferation stimulated by PDGF and IL-1; type: cell-based; settings: PDGF and IL-1; drug added two hours prior, FIG. 4
# Text: CT1501R and PTX were separately added to the cells two hours prior to activation with PDGF and IL-1.
# [4] = system: stromelysin/PUMP-1; assay: PUMP-1 activity induced by IL-1; type: cell-based; settings: induced by 100 U/ml of IL-1
# Text: Metalloproteases mediate tissue damage such as glomerular diseases of the kidney, joint destruction in arthritis, and lung destruction in emphysema, and play a role in tumor metastases. Three examples of metalloproteases include a 92 kD type V gelatinase induced by TNF, IL-1 and PDGF plus bFGF, a 72 kD type IV collagenase that is usually constitutive and induced by TNF or IL-1, and a stromelysin/PUMP-1 induced by TNF and IL-1. The inventive compounds can inhibit TNF or IL-1 induction of the 92 kD type V gelatinase inducable metalloprotease. Moreover, CT 1501R reduced PUMP- 1 activity induced by 100 U/ml of IL-1 to 15% of its control levels. […] Accordingly, the inventive compounds prevent induction of certain metalloproteases induced by IL-1 or TNF and are not involved with constitutively produced proteases (e.g., 72 kD type IV collagenase) involved in normal tissue remodeling.
# [5] = metabolized in humans; cited from earlier work
# [6] = system: PBMC (peripheral blood mononuclear cells); assay: two-way mixed lymphocyte reaction (MLR); type: cell-based, human; settings: FIG. 1
# Text: Various in vitro assays can be used to measure effects of the inventive compounds to module immune activity and have antitumor activity using a variety of cellular types. For example, a mixed lymphocyte reaction (MLR) provides a valuable screening tool to determine biological activity of each inventive compound. In the MLR, PBMCs (peripheral blood mononuclear cells) are obtained by drawing whole blood from healthy volunteers in a heparinized container and diluted with an equal volume of hanks balanced salt solution (HBSS). This mixture is layered on a sucrose density gradient, such as a Ficoll-Hypaque® gradient (specific gravity 1.08), and centrifuged at 1000× g for 25 minutes at room temperature or cooler. PBMC are obtained from a band at a plasma-Ficoll interface, separated and washed at least twice in a saline solution, such as HBSS. Contaminating red cells are lysed, such as by ACK lysis for 10 min at 37° C., and the PBMCs are washed twice in HBSS. The pellet of purified PBMCs is resuspended in complete medium, such as RPMI 1640 plus 20% human inactivated serum. Proliferative response of PBMC to allogeneic stimulation is determined in a two-way MLR performed in a 96-well microtiter plate. […] At the conclusion of the incubation tritiated thymidine is added (for example, 1 μCi/well of 40 to 60 Ci/mmole) and proliferation determined by liquid scintillation counting. […]
Compound,"hair follicles, subjective histopathological examination [1]",inhibition of LPAAT enzyme activity [2],inhibition of smooth muscle cell proliferation [3],"PUMP-1 activity, % of control levels [4] [%]",metabolic conversion of PTX [5],proliferative response of PBMC to allogeneic stimulation [6]
"Nc1cc(N2CCCCC2)nc(N)[n+]1[O-] [minoxidil, reference compound]",fair response to treatment,,,,,
C[C@H](O)CCCCn1c(=O)c2c(ncn2C)n(C)c1=O [CT1501S],,only CT1501R significantly inhibited enzyme activity,,,,
"CC(=O)CCCCn1c(=O)c2c(ncn2C)n(C)c1=O [PTX, 1-(5-oxohexyl)-3,7-dimethylxanthine, reference compound]",,only CT1501R significantly inhibited enzyme activity,inhibited smooth muscle cell proliferation at the higher doses tested,95,converted almost exclusively to the S enantiomer of MI,showed dose-response activity
